In patent publication US8460900B2, “Methods to degrade sludge from pulp and paper manufacturing” (Buckman Laboratories International, Inc., priority 2010, dated 2013):

Test system: CELLIC® CTec enzyme
Assay: Cellulase activity of enzyme-surfactant solutions, carboxymethyl cellulose as substrate
Assay type: biochemical
Conditions: Table 3: 5 wt % surfactant + 10 wt % CELLIC CTec; for % Activity Increase: versus enzyme without surfactant; for Cellulase Activity (u/g): CMC substrate
Experimental: The experiments were set up for evaluating the effects of surfactants on enzymatic activity of CELLIC® CTec enzyme. The enzyme, surfactant, and water were mixed to form a solution containing 5 wt % surfactant and 10 wt % enzyme. For example, 1.0 g of CELLIC® CTec, 0.5 g of PLURONIC F108, and 8.5 g of deionized water were mixed to produce a solution containing 10 wt % enzyme and 5 wt % surfactant. The resulted enzyme-surfactant solutions were tested for cellulase activity. Carboxymethyl cellulose was used as the assay substrate. A control solution containing 10 wt % enzyme without surfactant was included for comparison.
Five PLURONIC surfactants with different HLB values are evaluated for their effects on the enzymatic activity of CELLIC® CTec in water solution. Each surfactant was mixed with the enzyme in water. The resulting solution was then assayed for cellulase activity using carboxymethyl cellulose (CMC) as the substrate. […] F108 enhanced the enzymatic activity by 22.3%.

Substance | % Activity Increase | Cellulase Activity (u/g)
Cocobis(2-hydroxyethyl)methyl ammonium chloride | 6.9% | 351.6 u/g
Sorbitan mono-oleate [Sorbitan mono-oleate, non-ionic] | −2.3% | 321.5 u/g
Sorbitan mono-oleate ester [Sorbitan mono-oleate ester, non-ionic] | 7.3% | 353.1 u/g
